The source of these data is patent US10172832B2, “Amide derivatives of N-urea substituted amino acids as formyl peptide receptor like-1 (FPRL-1) receptor modulators” (Allergan, Inc., priority 2011, dated 2019).

For this assay, the target named is T1, FPRL-1 (Homo sapiens, UniProt P25090).
T1 construct: expressed in transfected cells
T1 sequence (P25090 1-351): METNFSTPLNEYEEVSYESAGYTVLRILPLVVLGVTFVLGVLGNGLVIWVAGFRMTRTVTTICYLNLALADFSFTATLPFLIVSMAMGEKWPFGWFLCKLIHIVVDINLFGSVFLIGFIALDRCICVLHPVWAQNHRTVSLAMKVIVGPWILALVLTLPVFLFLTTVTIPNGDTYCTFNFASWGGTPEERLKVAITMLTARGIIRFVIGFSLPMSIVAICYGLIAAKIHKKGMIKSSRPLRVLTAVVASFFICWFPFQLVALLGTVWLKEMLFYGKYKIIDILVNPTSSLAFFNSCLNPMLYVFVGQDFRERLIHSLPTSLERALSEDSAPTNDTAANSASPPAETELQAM
The experiment in a line: compound-induced calcium activity on FLIPR Tetra in CHO-Gα16 cells stably expressing FPRL1. The assay is classed as cell-based. The note with it: for FPRL-1 Ga16-CHO (Rel. eff.): relative efficacy; for EC50: tested 0.61 to 10,000 nM, read-out: FPRL-1 Ga16-CHO EC50. As for the experimental part:
CHO-Gα16 cells stably expressing FPRL1 were cultured in (F12, 10% FBS, 1% PSA, 400 μg/ml geneticin and 50 μg/ml hygromycin) and HEK-Gqi5 cells stable expressing FPR1 were cultured in (DMEM high glucose, 10% FBS, 1% PSA, 400 μg/ml geneticin and 50 μg/ml hygromycin). In general, the day before the experiment, 18,000 cells/well were plated in a 384-well clear bottom poly-d-lysine coated plate. The following day the screening compound-induced calcium activity was assayed on the FLIPR^Tetra. The drug plates were prepared in 384-well microplates using the EP3 and the MultiPROBE robotic liquid handling systems. Compounds were tested at concentrations ranging from 0.61 to 10,000 nM. Results are expressed as EC50 (nM) and efficacy values.

On to `CC(C)C[C@H](NC(=O)Nc1ccc(Br)cc1F)C(=O)N[C@@H](C)C(N)=O` [Compound 40, (2S)-N-[(1S)-2-amino-1-methyl-2-oxoethyl]-2-{[(4-bromo-2-fluorophenyl)carbamoyl]amino}-4-methylpentanamide], for which the “FPRL-1 Ga16-CHO (Rel. eff.)” value is “(1.05)” and the half-maximal effective concentration (EC50) was determined as 0.031 µM.
Regarding `CCC(CC)(NC(=O)Nc1ccc(Br)cc1)C(=O)NCC(=O)O` [Compound 58, {[2-{[(4-bromophenyl)carbamoyl]amino}-2-ethylbutanoyl]amino}acetic acid], the “FPRL-1 Ga16-CHO (Rel. eff.)” value is reported as “(1.04)” and the concentration giving a half-maximal response (EC50) was 0.019 µM.
As for `CC(C)(C)OC(=O)CNC(=O)C(C)(C)NC(=O)Nc1ccc(Br)cc1` [Compound 59, tert-butyl {[2-{[(4-bromophenyl)carbamoyl]amino}-2-methylpropanoyl]amino}acetate], the “FPRL-1 Ga16-CHO (Rel. eff.)” value was “(1.02)” and the concentration giving a half-maximal response (EC50) stood at 0.114 µM.
The matching figures for `CCC[C@H](NC(=O)Nc1ccc(Br)cc1F)C(=O)NCC(N)=O` [Compound 31, (2S)-N-(2-amino-2-oxoethyl)-2-{[(4-bromo-2-fluorophenyl]carbamoyl}amino)pentanamide]: “(0.98)” and 0.0052 µM.
The like results for `CC[C@H](C)[C@H](NC(=O)Nc1ccc(Br)cc1F)C(=O)NCC(N)=O` [Compound 29, (2S,3S)-N-(2-amino-2-oxoethyl)-2-{[(4-bromo-2-fluorophenyl)carbamoyl]amino}-3-methylpentanamide] were, in that order, “(1.00)” and 0.01 µM.
Take `CC(C)C[C@H](NC(=O)Nc1ccc(Br)cc1)C(=O)NC(CO)CO` [Compound 48, (2S)-2-{[(4-bromophenyl)carbamoyl]amino}-N-[2-hydroxy-1-(hydroxymethyl)ethyl]-4-methylpentanamide]: the EC50 was 0.0074 µM.
In the case of `CCC[C@H](NC(=O)[C@H](CC(C)C)NC(=O)Nc1ccc(Br)cc1)C(=O)O` [Compound 51, (2S)-2-{[(2S)-2-{[(4-bromophenyl)carbamoyl]amino}-4-methylpentanoyl]amino}pentanoic acid], the “FPRL-1 Ga16-CHO (Rel. eff.)” value is given as “(0.89)” and the EC50 turned out to be 0.001 µM.
Take `CC(C)(C)OC(=O)CNC(=O)[C@H](Cc1c[nH]c2ccccc12)NC(=O)Nc1ccc(Br)cc1` (stereo in doubt) [Compound 90, tert-butyl {[2-{[(4-bromophenyl)carbamoyl]amino}-3-(1H-indol-3-yl)propanoyl]amino}acetate]: the “FPRL-1 Ga16-CHO (Rel. eff.)” value is listed as “(1.03)” and the 50% effective concentration (EC50) turned out to be 0.305 µM.
The like results for `CC(C)C[C@H](NC(=O)Nc1ccc(Br)cc1)C(=O)N[C@H](C(=O)OC(C)(C)C)C(C)C` [Compound 42, tert-butyl(2S)-2-{[(2S)-2-{[(4-bromophenyl)carbamoyl]amino}-4-methylpentanoyl]amino}-3-methylbutanoate] were, in that order, “(0.98)” and 0.068 µM.
With `CC[C@@H](C)[C@@H](NC(=O)Nc1ccc(Br)cc1)C(=O)NCC(=O)OC(C)(C)C` [Compound 64, tert-butyl {[(2R,3R)-2-{[(4-bromophenyl)carbamoyl]amino}-3-methylpentanoyl]amino}acetate], the “FPRL-1 Ga16-CHO (Rel. eff.)” value is “(0.44)” and the 50% effective concentration (EC50) was determined as 3.97 µM.
The like results for `CC(C)C[C@H](NC(=O)Nc1ccc(Br)cc1)C(=O)N[C@H](C(N)=O)c1ccccc1` [Compound 54, (2S)-N-[(1S)-2-amino-2-oxo-1-phenylethyl]-2-{[(4-bromophenyl)carbamoyl]amino}-4-methylpentanamide] were, in that order, “(0.99)” and 0.084 µM.
The matching figures for `O=C(Nc1ccc(Br)cc1)N[C@@H](Cc1ccccc1)C(=O)NCCO` [Compound 9, (2S)-2-{[(4-bromophenyl)carbamoyl]amino}-N-(2-hydroxyethyl)-3-phenylpropanamide]: “(0.92)” and 0.006 µM.
For the compound `CSCC[C@H](NC(=O)Nc1ccc(Br)cc1)C(=O)NCC(=O)OC(C)(C)C` [Compound 80, tert-butyl {[(2S)-2-{[(4-bromophenyl)carbamoyl]amino}-4-(methylsulfanyl)butanoyl]amino}acetate], the “FPRL-1 Ga16-CHO (Rel. eff.)” value was “(0.98)” and the EC50 came out at 0.127 µM.
The like results for `CC(C)C[C@@H](NC(=O)Nc1ccc(Br)cc1)C(=O)NCC(=O)OC(C)(C)C` [Compound 66, tert-butyl {[(2R)-2-{[(4-bromophenyl)carbamoyl]amino}-4-methylpentanoyl]amino}acetate] were, in that order, “(0.92)” and 3.66 µM.
Turning to `CSCC[C@H](NC(=O)Nc1ccc(Br)cc1)C(=O)NCC(=O)O` [Compound 82, {[(2S)-2-{[(4-bromophenyl)carbamoyl]amino}-4-(methylsulfanyl)butanoyl]amino}acetic acid], the “FPRL-1 Ga16-CHO (Rel. eff.)” value is recorded as “(1.03)” and the half-maximal effective concentration (EC50) was 0.007 µM.
The matching figures for `CC[C@H](C)[C@H](NC(=O)Nc1ccc(Br)cc1)C(=O)NCC(C)=O` [Compound 12, (2S,3S)-2-{[(4-bromophenyl)carbamoyl]amino}-3-methyl-N-(2-oxopropyl)pentanamide]: “(0.97)” and 0.01 µM.
The matching figures for `CC(=O)CNC(=O)[C@H](Cc1ccccc1)NC(=O)Nc1ccc(Br)cc1` [Compound 16, (2S)-2-{[(4-bromophenyl)carbamoyl]aminio}-N-(2-oxopropyl)-3-phenylpropanamide]: “(0.96)” and 0.029 µM.
The like results for `O=C(Nc1ccc(Br)cc1F)N[C@@H](Cc1ccccc1)C(=O)NCCO` [Compound 19, (2S)-2-{[(4-bromo-2-fluorophenyl)carbamoyl]amino}-N-(2-hydroxyethyl)-3-phenylpropanamide] were, in that order, “(0.98)” and 0.016 µM.
Consider `CC[C@H](C)[C@H](NC(=O)Nc1ccc(Br)cc1F)C(=O)NCC(=O)OC(C)(C)C` [Compound 10, tert-butyl{[(2S,3S)-2-{[(4-bromo-2-fluorophenyl)carbamoyl]amino}-3-methylpentanoyl]amino}acetate], for which the “FPRL-1 Ga16-CHO (Rel. eff.)” value is “(0.86)” and the EC50 was determined as 0.757 µM.
With `CC(C)(C)OC(=O)CNC(=O)C(CC(N)=O)NC(=O)Nc1ccc(Br)cc1` (stereo not shown) [Compound 88, tert-butyl {[4-amino-2-{[(4-bromophenyl)carbamoyl]amino}-4-oxobutanoyl]amino}acetate], the “FPRL-1 Ga16-CHO (Rel. eff.)” value is “(0.90)” and the EC50 turned out to be 2.31 µM.
Regarding `CC[C@H](C)[C@H](NC(=O)Nc1ccc(Br)cc1)C(=O)NCC(=O)OC(C)(C)C` [Compound 11, tert-butyl{[(2S,3S)-2-{[(4-bromophenyl)carbamoyl]amino}-3-methylpentanoyl]amino}acetate], the “FPRL-1 Ga16-CHO (Rel. eff.)” value is “(0.85)” and the EC50 is 0.28 µM.
The like results for `CCC[C@H](NC(=O)Nc1ccc(Br)cc1F)C(=O)NCCO` [Compound 21, (2S)-2-{[(4-bromo-2-fluorophenyl)carbamoyl]amino}-N-(2-hydroxyethyl) pentanamide] were, in that order, “(0.87)” and 0.105 µM.
The matching figures for `CCC[C@H](NC(=O)Nc1ccc(Br)cc1)C(=O)NCC(=O)OCC` [Compound 23, ethyl {[(2S)-2-{[(4-bromophenyl)carbamoyl]amino}-pentanoyl]amino}acetate]: “(1.18)” and 0.057 µM.
For `CC(C)C[C@H](NC(=O)Nc1ccc(C(F)(F)F)cc1)C(=O)NCC(=O)OC(C)(C)C` [Compound 62, tert-butyl {[(2S)-4-methyl-2-({[4-(trifluoromethyl)phenyl]carbamoyl}amino)pentanoyl]amino}acetate], the “FPRL-1 Ga16-CHO (Rel. eff.)” value is listed as “(0.81)” and the EC50 was 0.309 µM.
The like results for `CCC[C@H](NC(=O)Nc1ccc(Br)cc1)C(=O)NCCO` [Compound 20, (2S)-2-{[(4-bromophenyl)carbamoyl]amino}-N-(2-hydroxyethyl)pentanamid] were, in that order, “(0.92)” and 0.038 µM.
Take `CC(C)C[C@H](NC(=O)Nc1ccc(Br)cc1F)C(=O)N[C@@H](C)C(=O)O` [Compound 39, (2S)-2-{[(2S)-2-{[(4-bromo-2-fluorophenyl)carbamoyl]amino}-4-methylpentanoyl]amino}propanoic acid]: the “FPRL-1 Ga16-CHO (Rel. eff.)” value was “(0.95)” and the concentration for a half-maximal effect (EC50) worked out at 0.012 µM.
The like results for `CC(C)C[C@H](NC(=O)Nc1ccc(C(F)(F)F)cc1)C(=O)NC(C)(C)C(=O)O` [Compound 69, 2-methyl-2-{[(2S)-4-methyl-2-({[4-(trifluoromethyl)phenyl]carbamoyl}amino)pentanoyl]amino}propanoic acid] were, in that order, “(0.92)” and 0.0023 µM.
Consider `CCC[C@H](NC(=O)Nc1ccc(Br)cc1F)C(=O)NCC(=O)OC(C)(C)C` [tert-butyl {[(2S)-2-{[(4-bromo-2-fluorophenyl)carbamoyl]amino}pentanoyl]amino}acetate], for which the “FPRL-1 Ga16-CHO (Rel. eff.)” value is reported as “(0.95)” and the EC50 stood at 0.083 µM.

As usually defined, the EC50 is the concentration that produces a half-maximal response.
